In patent US20250018014A1, “METHOD FOR TREATING AND/OR PREVENTING REGNASE-1-RELATED DISEASE” (OSAKA UNIVERSITY, priority 2018, published 2025):
Residues, ends and D or L forms follow the SMILES beside them.

Legend:
[1] = target: T1, binding between TBK1 and full-length Regnase-1 (FL_Reg1) (Homo sapiens, UniProt Q5D1E8); experiment: Inhibition of kinase-Regnase-1 binding by the compounds (AlphaScreen), TBK1; details: Table 13; binding between TBK1 and Regnase-1; read-out: Binding inhibition FL_Reg1, 50% inhibition concentration (TBK1)
T1 construct: made in house; host or cells: Expi293 cells
T1 sequence (Q5D1E8 1-599): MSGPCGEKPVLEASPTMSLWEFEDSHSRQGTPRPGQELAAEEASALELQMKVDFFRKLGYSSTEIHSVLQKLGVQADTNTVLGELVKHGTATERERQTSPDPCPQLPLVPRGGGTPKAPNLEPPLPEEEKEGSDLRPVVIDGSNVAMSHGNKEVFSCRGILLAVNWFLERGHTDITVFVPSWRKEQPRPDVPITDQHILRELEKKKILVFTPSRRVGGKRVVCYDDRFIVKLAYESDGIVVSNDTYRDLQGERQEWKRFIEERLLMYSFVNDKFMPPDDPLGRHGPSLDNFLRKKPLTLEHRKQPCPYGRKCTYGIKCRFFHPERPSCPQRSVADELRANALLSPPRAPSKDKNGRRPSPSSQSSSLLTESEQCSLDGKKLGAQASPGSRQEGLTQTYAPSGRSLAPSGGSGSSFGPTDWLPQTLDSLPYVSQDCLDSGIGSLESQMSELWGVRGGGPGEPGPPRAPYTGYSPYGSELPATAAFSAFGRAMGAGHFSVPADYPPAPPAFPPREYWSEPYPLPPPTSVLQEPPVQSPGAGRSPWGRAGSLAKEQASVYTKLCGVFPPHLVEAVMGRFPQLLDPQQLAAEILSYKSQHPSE
Experimental: (§1) As a target protein, a construct having a FLAG tag on the N-terminal side and a recognition sequence for biotin ligase BirA on the C-terminal side of the full-length sequence of human Regnase-1 (UniProt ID: Q5D1E8) was prepared (FL_Reg1). The above-mentioned Regnase-1 was expressed in mammalian Expi293 cells, purified with FLAG M2 agarose, and isolated by gel filtration chromatography. When biotinylation was required, methods from nonpatent documents (BMC biotechnology, 2008,8,41; and Protein Science, 1999,8,921-929) were used.
(§2) After mixing 2.5 nM of the above-mentioned Regnase-1 and the compound, 2.5 nM of IKKβ or TBK1 was added and reacted at room temperature for two hours. Then, Anti FLAG AlphaLISA Acceptor Beads (manufactured by PerkinElmer) and Glutathione-coated AlphaScreen Donor Beads (manufactured by PerkinElmer) were added, and excited luminescence was measured using En Vision (manufactured by PerkinElmer). As the results, the inhibition rate from the signals obtained when adding the compound at each concentration were calculated, by defining the signal obtained with Regnase-1 alone to be 100% inhibition rate, and the signal obtained when the same amount of solvent (DMSO) is added in place of the compound as 0% inhibition rate. The 50% inhibition concentration (μM) was calculated from the obtained dose response curve (Table 12).

[2] = target: T2, Reg1_301-599 (amino acids 301-599 of human Regnase-1) phosphorylation by TBK1 (Homo sapiens, UniProt Q5D1E8); experiment: Regnase-1 phosphorylation inhibition by compounds (AlphaScreen), TBK1, C-terminal Regnase-1; format: biochemical; details: Table 13, read-out: Phosphorylation inhibition Reg1_301-599, 50% inhibition concentration (TBK1)
T2 construct: made in house; host or cells: Expi293 cells
T2 sequence (Q5D1E8 301-599): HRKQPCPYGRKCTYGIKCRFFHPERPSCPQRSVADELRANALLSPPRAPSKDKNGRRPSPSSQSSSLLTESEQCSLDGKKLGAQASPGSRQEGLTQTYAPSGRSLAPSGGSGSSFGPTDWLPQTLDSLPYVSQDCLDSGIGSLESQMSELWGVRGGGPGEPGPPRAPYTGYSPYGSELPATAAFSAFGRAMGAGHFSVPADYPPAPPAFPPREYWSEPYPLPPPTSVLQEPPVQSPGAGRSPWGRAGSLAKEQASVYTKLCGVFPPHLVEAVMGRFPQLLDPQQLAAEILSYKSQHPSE
Experimental: (§3) Among the full-length human Regnase-1 sequence, the 1st to 546th amino acid sequence was prepared and made into a construct having a FLAG tag on the N-terminal side and a biotin ligase BirA recognition sequence on the C-terminal side (herein, a Regnase-1 lacking the C-terminal domain of Regnase-1 (amino acids 547 to 599 in the case of SEQ ID NO: 2) is referred to as “ΔCTD_Reg1”. “ΔCTD_Reg1” is different from “Regnase-1ΔCTD”, which is a C-terminal domain deletion variant resulting from a frameshift mutation caused by a 1 bp deletion at codon 517, as prepared in Example 13). In addition, the sequence from amino acids 301 to 599 of the full-length human Regnase-1 sequence was designated as C-terminal Regnase-1, and a construct having a FLAG tag on the N-terminal side and a recognition sequence for biotin ligase BirA on the C-terminal side was prepared (Reg1_301-599). The above-mentioned Regnase-1 was expressed in mammalian Expi293 cells, purified with FLAG M2 agarose, and isolated by gel filtration chromatography. When biotinylation was required, methods of nonpatent documents (BMC biotechnology, 2008,8,41; and Protein Science, 1999,8,921-929) were used.
(§4) Using Kinase assay buffer III (manufactured by SignalChem) supplemented with 2 mM DTT, 100 μM sodium vanadate, and 2 mM manganese chloride, kinase (IKKβ (manufactured by SignalChem) or TBK1 (manufactured by SignalChem)) and Regnase-1 were reacted in the presence of 10 μM ATP at room temperature for 2 hours to perform a phosphorylation reaction.
(§5) Phosphorylated Regnase-1 was detected by the AlphaScreen system. After each of the above-mentioned phosphorylated Regnase-1 antibodies was added and reacted at room temperature for one hour, anti-FLAG AlphaLISA Acceptor Beads (manufactured by PerkinElmer) and Protein A AlphaScreen Donor Beads (manufactured by PerkinElmer) were added, and EnVision (manufactured by PerkinElmer) was used to measure the excited luminescence. As a result, phosphorylated Regnase-1 produced by the phosphorylation reaction by kinase was specifically detected, and signals were confirmed to be enhanced in a manner dependent on Regnase-1 and kinase concentrations (FIG. 24).
(§6) After mixing 2 nM of the above-mentioned Regnase-1 and the compound, phosphorylated Regnase-1 produced by the phosphorylation reaction was detected by the AlphaScreen system. As the results, the inhibition rate was calculated from the signals obtained when adding the compound at each concentration, by defining the signal obtained with Regnase-1 alone to be 100% inhibition rate, and the signal obtained when the same amount of solvent (DMSO) is added in place of the compound as 0% inhibition rate. The 50% inhibition concentration (μM) was calculated from the obtained dose response curve (Table 11).

[3] = target: T3, Reg1_301-599 (amino acids 301-599 of human Regnase-1) phosphorylation by IKKβ (Homo sapiens, UniProt Q5D1E8); experiment: Regnase-1 phosphorylation inhibition by compounds (AlphaScreen), IKKβ, C-terminal Regnase-1; format: biochemical; details: Table 14, read-out: Phosphorylation inhibition Reg1_301-599, 50% inhibition concentration (IKKβ)
T3 construct: made in house; host or cells: Expi293 cells
T3 sequence (Q5D1E8 301-599): T2 sequence (Q5D1E8 301-599)
Description: as §1, with “The full-length sequence of human Regnase-1 (UniProt ID: Q5D1E8) was used to prepare” for “As a target protein,”, “(FL_Reg1) as a target protein.” for “of the full-length sequence of human Regnase-1 (UniProt ID: Q5D1E8) was prepared (FL_Reg1).”
as §3, §4, §5, §6

[4] = target: T4, binding between IKKβ and full-length Regnase-1 (FL_Reg1) (Homo sapiens, UniProt Q5D1E8); experiment: Inhibition of kinase-Regnase-1 binding by the compounds (AlphaScreen), IKKβ; details: Table 14; binding between IKKβ and Regnase-1; read-out: Binding inhibition FL_Reg1, 50% inhibition concentration (IKKβ)
T4 construct: made in house; host or cells: Expi293 cells
T4 sequence (Q5D1E8 1-599): T1 sequence (Q5D1E8 1-599)
Experimental: as §1, §2

[5] = target: T5, FL_Reg1 (full-length human Regnase-1) phosphorylation by TBK1 (Homo sapiens, UniProt Q5D1E8); experiment: Regnase-1 phosphorylation inhibition by compounds (AlphaScreen), TBK1, full-length Regnase-1; format: biochemical; details: Table 13; phosphorylation by TBK1; read-out: Phosphorylation inhibition FL_Reg1, 50% inhibition concentration (TBK1)
T5 construct: made in house; host or cells: Expi293 cells
T5 sequence (Q5D1E8 1-599): T1 sequence (Q5D1E8 1-599)
Description: as §1, with “The full-length sequence of human Regnase-1 (UniProt ID: Q5D1E8) was used to prepare” for “As a target protein,”, “(FL_Reg1) as a target protein.” for “of the full-length sequence of human Regnase-1 (UniProt ID: Q5D1E8) was prepared (FL_Reg1).”, “used. […]” for “used.”
as §4, §5, §6

[6] = target: T6, FL_Reg1 (full-length human Regnase-1) phosphorylation by IKKβ (Homo sapiens, UniProt Q5D1E8); experiment: Regnase-1 phosphorylation inhibition by compounds (AlphaScreen), IKKβ, full-length Regnase-1; format: biochemical; details: Table 14; phosphorylation by IKKβ; read-out: Phosphorylation inhibition FL_Reg1, 50% inhibition concentration (IKKβ)
T6 construct: made in house; host or cells: Expi293 cells
T6 sequence (Q5D1E8 1-599): T1 sequence (Q5D1E8 1-599)
Description: as §1, with “The full-length sequence of human Regnase-1 (UniProt ID: Q5D1E8) was used to prepare” for “As a target protein,”, “(FL_Reg1) as a target protein.” for “of the full-length sequence of human Regnase-1 (UniProt ID: Q5D1E8) was prepared (FL_Reg1).”, “used. […]” for “used.”
as §4, §5, §6

Row | IC50 [1] [µM] | IC50 [2] [µM] | IC50 [3] [µM] | IC50 [4] [µM] | IC50 [5] [µM] | IC50 [6] [µM] | SMILES
1 | 7.1 | 6.8 | 6.5 | 20.1 | 3.1 | 1.6 | CC[C@H](C)[C@@H]1NC(=O)[C@H](Cc2c[nH]c3ccccc23)NC(=O)[C@H](CO)NC(=O)[C@H](Cc2c[nH]c3ccccc23)NC(=O)[C@H](C(C)C)NC(=O)CNC(=O)[C@H](Cc2ccccc2)NC(=O)[C@H](CCCNC(=N)N)NC(=O)[C@H](C)N(C)C(=O)C[C@@H](C(=O)N2CCCC2)NC(=O)[C@@H]2CCCN2C(=O)[C@H](Cc2ccc(O)cc2)NC1=O [PP14] (HELM PEPTIDE1{[meA].R.F.G.V.W.S.W.I.Y.P.D.[C1CCN([*:1])C1]}$PEPTIDE1,PEPTIDE1,1:R1-12:R3$$$V2.0)
2 | 17.9 | 4.6 | – | 15.1 | 2.2 | 0.8 | CC[C@H](C)[C@@H]1NC(=O)[C@H](C)NC(=O)[C@H](CCCNC(=N)N)NC(=O)[C@H](Cc2ccc(O)cc2)NC(=O)[C@H](Cc2ccc(O)cc2)NC(=O)[C@H](C)NC(=O)[C@H](CO)NC(=O)[C@H](CC(N)=O)NC(=O)[C@H](Cc2ccccc2)NC(=O)[C@H](CC(N)=O)NC(=O)[C@H](C)N(C)C(=O)C[C@@H](C(=O)N2CCCC2)NC(=O)[C@H](Cc2c[nH]c3ccccc23)NC1=O [PP7] (HELM PEPTIDE1{[meA].N.F.N.S.A.Y.Y.R.A.I.W.D.[C1CCN([*:1])C1]}$PEPTIDE1,PEPTIDE1,1:R1-13:R3$$$V2.0)
